Earlier results, collected in patent US20230346989A1, “FLUOROCARBON NANOEMULSIONS AND USES THEREOF IN IMAGING” (The Regents of the University of California, priority 2020, published 2023).

Experiments:
tumors = settings: depending on the model; cited from earlier work
[1] = in vivo; cited from earlier work

For `C[C@H](NC(=O)c1c(N)nn2cccnc12)c1cc2cccc(C#Cc3cnn(C)c3)c2c(=O)n1-c1ccccc1` [IPI549], the “suppression of tumor growth” value (tumors) is given as 50-100%.

For `FC(F)(F)C(F)(F)C(F)(F)C(F)(F)C(F)(F)C(F)(F)C(F)(F)C(F)(F)Br` [PFOB, perfluorooctyl bromide], the organ-retention half-life [1] is listed as 122 h.
